Laboratory results as given in patent US9708318B2, “Bicyclic heterocycles as FGFR4 inhibitors” (Incyte Corporation, priority 2015, dated 2017).
Where two headings read alike, the source gives them in different places.

Columns and labels:
FGFR2 = FGFR2 (Homo sapiens (Human), UniProt P21802); assay: FGFR Enzymatic Assay (FRET peptide phosphorylation), FGFR2; assay type: biochemical
Protocol: (§1) The inhibitor potency of the exemplified compounds was measured in an enzyme assay that measures peptide phosphorylation using FRET measurements to detect product formation. Inhibitors were serially diluted in DMSO and a volume of 0.5 μL was transferred to the wells of a 384-well plate.
(§2) The enzymes were purchased from Millipore or Invitrogen.
(§3) GraphPad prism3 was used to analyze the data.

FGFR3 enzyme = FGFR3 enzyme (Homo sapiens (Human), UniProt P22607); assay: FGFR Enzymatic Assay (FRET peptide phosphorylation), FGFR3; assay type: biochemical; details: for FGFR1/FGFR3 IC50 ratio / FGFR4/FGFR3 IC50 ratio: FGFR3 selectivity
Protocol: as §1, §3

FGFR4 = FGFR4 (Homo sapiens (Human), UniProt P22455); assay: FGFR Enzymatic Assay (FRET peptide phosphorylation), FGFR4; assay type: biochemical
Protocol: as §1, §2, §3

FGFR1 = FGFR1 (Homo sapiens (Human), UniProt P11362); assay: FGFR Enzymatic Assay (FRET peptide phosphorylation), FGFR1
[1] = pre-incubated for 4 hours, read-out: FGFR3 IC50
[2] = FGFR1 IC50 (nM), pre-incubated for 4 hours
[3] = read-out: FGFR1 IC50, pre-incubated for 4 hours
[4] = pre-incubated for 5 to 10 minutes

FGFR3 enzyme, sequence (P22607 23-806): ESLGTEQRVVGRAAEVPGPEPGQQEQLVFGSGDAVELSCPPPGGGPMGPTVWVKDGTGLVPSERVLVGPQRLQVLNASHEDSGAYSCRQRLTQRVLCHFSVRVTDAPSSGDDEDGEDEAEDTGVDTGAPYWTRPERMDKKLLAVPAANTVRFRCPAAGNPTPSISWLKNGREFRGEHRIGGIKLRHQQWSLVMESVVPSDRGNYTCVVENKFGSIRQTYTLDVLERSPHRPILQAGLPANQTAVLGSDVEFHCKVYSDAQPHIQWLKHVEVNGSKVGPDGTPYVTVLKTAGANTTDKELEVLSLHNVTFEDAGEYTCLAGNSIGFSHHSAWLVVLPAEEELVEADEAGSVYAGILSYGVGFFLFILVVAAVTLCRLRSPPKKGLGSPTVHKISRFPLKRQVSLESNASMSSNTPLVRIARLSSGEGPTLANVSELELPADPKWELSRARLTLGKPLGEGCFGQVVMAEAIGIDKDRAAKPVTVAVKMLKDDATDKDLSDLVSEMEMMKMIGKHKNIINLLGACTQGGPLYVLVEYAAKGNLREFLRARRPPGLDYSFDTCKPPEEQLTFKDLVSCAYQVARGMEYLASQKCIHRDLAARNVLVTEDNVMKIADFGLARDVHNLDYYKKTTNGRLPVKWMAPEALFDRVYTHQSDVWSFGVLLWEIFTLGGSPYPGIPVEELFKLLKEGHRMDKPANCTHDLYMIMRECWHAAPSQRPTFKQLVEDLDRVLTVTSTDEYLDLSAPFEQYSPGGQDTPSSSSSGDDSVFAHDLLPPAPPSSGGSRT
FGFR2, sequence (P21802 22-821): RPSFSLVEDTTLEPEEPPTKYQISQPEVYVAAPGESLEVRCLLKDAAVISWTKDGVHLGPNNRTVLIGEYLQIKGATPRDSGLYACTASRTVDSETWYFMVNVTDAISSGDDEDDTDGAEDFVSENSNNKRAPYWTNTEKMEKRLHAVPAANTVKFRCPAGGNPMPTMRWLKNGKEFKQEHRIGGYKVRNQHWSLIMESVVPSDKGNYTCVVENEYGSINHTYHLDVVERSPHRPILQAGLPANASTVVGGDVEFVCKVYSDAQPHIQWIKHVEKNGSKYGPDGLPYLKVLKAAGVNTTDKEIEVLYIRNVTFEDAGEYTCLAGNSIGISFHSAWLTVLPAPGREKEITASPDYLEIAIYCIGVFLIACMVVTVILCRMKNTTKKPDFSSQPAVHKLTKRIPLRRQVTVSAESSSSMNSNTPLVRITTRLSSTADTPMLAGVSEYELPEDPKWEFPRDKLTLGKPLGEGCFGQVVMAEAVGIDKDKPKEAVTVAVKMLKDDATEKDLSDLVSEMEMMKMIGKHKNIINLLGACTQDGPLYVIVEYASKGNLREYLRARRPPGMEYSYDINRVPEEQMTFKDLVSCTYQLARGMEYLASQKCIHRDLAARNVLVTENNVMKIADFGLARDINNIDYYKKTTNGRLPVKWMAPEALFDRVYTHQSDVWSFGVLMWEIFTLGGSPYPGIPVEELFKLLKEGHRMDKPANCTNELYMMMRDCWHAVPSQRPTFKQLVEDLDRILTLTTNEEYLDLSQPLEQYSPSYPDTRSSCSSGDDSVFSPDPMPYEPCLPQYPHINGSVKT
FGFR4, sequence (P22455 22-802): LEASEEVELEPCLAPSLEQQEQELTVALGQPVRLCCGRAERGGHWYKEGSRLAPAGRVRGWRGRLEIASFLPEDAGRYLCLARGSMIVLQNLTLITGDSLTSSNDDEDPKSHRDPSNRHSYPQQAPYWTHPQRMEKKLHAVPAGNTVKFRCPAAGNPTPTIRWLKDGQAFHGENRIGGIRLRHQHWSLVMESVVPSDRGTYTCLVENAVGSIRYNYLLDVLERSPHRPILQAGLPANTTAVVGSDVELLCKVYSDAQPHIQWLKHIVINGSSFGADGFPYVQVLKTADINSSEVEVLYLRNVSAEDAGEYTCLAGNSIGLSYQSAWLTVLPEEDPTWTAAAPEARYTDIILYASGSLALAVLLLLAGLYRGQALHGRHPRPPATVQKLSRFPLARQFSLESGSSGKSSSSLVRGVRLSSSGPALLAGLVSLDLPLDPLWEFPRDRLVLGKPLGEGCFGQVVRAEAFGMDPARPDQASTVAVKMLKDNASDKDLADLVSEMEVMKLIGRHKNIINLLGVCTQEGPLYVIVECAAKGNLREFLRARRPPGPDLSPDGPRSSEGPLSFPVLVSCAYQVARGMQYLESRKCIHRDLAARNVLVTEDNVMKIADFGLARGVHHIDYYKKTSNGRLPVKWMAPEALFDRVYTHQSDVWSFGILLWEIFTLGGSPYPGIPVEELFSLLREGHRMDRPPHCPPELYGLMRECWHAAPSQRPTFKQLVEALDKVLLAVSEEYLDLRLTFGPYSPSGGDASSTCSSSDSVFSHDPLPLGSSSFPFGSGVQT
FGFR1, sequence (P11362 22-822): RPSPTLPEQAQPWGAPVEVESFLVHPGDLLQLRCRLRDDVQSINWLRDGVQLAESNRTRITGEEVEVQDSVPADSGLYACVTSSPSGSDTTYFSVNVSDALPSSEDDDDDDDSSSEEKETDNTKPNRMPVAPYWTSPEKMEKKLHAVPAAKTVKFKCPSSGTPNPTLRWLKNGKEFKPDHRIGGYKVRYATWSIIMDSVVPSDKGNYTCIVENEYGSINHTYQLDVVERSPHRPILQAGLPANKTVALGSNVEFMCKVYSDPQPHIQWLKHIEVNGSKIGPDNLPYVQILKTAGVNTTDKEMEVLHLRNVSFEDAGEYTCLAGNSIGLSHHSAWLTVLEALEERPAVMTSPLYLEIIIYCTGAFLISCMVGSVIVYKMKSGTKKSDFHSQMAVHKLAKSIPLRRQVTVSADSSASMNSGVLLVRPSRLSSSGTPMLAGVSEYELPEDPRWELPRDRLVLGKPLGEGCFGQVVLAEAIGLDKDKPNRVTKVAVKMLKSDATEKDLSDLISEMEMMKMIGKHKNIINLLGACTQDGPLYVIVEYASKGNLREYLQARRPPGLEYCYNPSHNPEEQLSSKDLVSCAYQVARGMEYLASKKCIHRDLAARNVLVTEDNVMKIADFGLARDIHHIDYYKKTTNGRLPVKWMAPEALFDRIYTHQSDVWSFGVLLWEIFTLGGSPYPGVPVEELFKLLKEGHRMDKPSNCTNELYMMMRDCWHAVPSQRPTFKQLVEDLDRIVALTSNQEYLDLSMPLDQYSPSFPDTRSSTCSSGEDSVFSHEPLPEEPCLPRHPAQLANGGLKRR

Compound | IC50 (FGFR2; pre-incubated for 4 hours) | FGFR1/FGFR3 IC50 ratio (FGFR3 enzyme; pre-incubated for 4 hours) | FGFR4/FGFR3 IC50 ratio (FGFR3 enzyme; pre-incubated for 4 hours) | IC50 (FGFR3 enzyme; [1]) | IC50 (FGFR4; pre-incubated for 4 hours) | IC50 (FGFR1; [2]) | IC50 (FGFR1; [3]) | IC50 (FGFR2; [4]) | IC50 (FGFR3 enzyme; pre-incubated for 5 to 10 minutes, read-out: FGFR3 IC50) | IC50 (FGFR4; [4]) | IC50 (FGFR1; FGFR1 IC50 (nM), pre-incubated for 5 to 10 minutes) | IC50 (FGFR3 enzyme)
COc1cc(OC)c(F)c(N2Cc3cnc(-c4cn(C)nc4C)cc3N(Cc3ccc4c(c3)OCCO4)C2=O)c1F [Example 38, 3-(2,6-difluoro-3,5-dimethoxyphenyl)-1-((2,3-dihydrobenzo[b][1,4]dioxin-6-yl)methyl)-7-(1,3-dimethyl-1H-pyrazol-4-yl)-3,4-dihydropyrido[4,3-d]pyrimidin-2(1H)-one] | 10 to 30 nM | >5 | >5 | < 10 nM | 30 to 200 nM | 30 to 200 nM | – | – | – | – | – | –
CCn1cc(CN2C(=O)N(c3c(F)c(OC)cc(OC)c3F)Cc3cnc(-c4cn(C)nc4C)cc32)cn1 [Example 39, 3-(2,6-difluoro-3,5-dimethoxyphenyl)-7-(1,3-dimethyl-1H-pyrazol-4-yl)-1-((1-ethyl-1H-pyrazol-4-yl)methyl)-3,4-dihydropyrido[4,3-d]pyrimidin-2(1H)-one] | < 10 nM | >10 | >10 | < 10 nM | < 10 nM | 10 to 30 nM | – | – | – | – | – | –
COc1cc(OC)c(F)c(N2Cc3cnc(-c4cn(C)nc4C)cc3N(c3ccc(F)cc3)C2=O)c1F [Example 40, 3-(2,6-difluoro-3,5-dimethoxyphenyl)-7-(1,3-dimethyl-1H-pyrazol-4-yl)-1-(4-fluorophenyl)-3,4-dihydropyrido[4,3-d]pyrimidin-2(1H)-one] | < 10 nM | >10 | >10 | < 10 nM | 30 to 200 nM | 30 to 200 nM | – | – | – | – | – | –
COc1cc(OC)c(F)c(N2Cc3cnc(-c4cn(C)nc4C)cc3N(c3ccc4ncsc4c3)C2=O)c1F [Example 41, 1-(1,3-benzothiazol-6-yl)-3-(2,6-difluoro-3,5-dimethoxyphenyl)-7-(1,3-dimethyl-1H-pyrazol-4-yl)-3,4-dihydropyrido[4,3-d]pyrimidin-2(1H)-one] | 10 to 30 nM | >1 | >5 | 10 to 30 nM | 30 to 200 nM | 30 to 200 nM | – | – | – | – | – | –
COc1cc(OC)c(F)c(N2Cc3cnc(-c4cn(C)nc4C)cc3N(C3CCN(C(C)=O)CC3)C2=O)c1F [Example 43, 1-(1-acetylpiperidin-4-yl)-3-(2,6-difluoro-3,5-dimethoxyphenyl)-7-(1,3-dimethyl-1H-pyrazol-4-yl)-3,4-dihydropyrido[4,3-d]pyrimidin-2(1H)-one] | 30 to 200 nM | >10 | >5 | – | 30 to 200 nM | – | > 200 nM | – | – | – | – | 10 to 30 nM
COc1cc(OC)c(F)c(N2Cc3cnc(-c4cn(C)nc4C)cc3N(c3ccc(C#N)cc3)C2=O)c1F [Example 44, 4-(3-(2,6-difluoro-3,5-dimethoxyphenyl)-7-(1,3-dimethyl-1H-pyrazol-4-yl)-2-oxo-3,4-dihydropyrido[4,3-d]pyrimidin-1(2H)-yl)benzonitrile] | 10 to 30 nM | >10 | >10 | < 10 nM | 30 to 200 nM | 30 to 200 nM | – | – | – | – | – | –
COc1cc(OC)c(F)c(N2Cc3cnc(-c4cn(C)nc4C)cc3N(c3ccncn3)C2=O)c1F [Example 45, 3-(2,6-difluoro-3,5-dimethoxyphenyl)-7-(1,3-dimethyl-1H-pyrazol-4-yl)-1-pyrimidin-4-yl-3,4-dihydropyrido[4,3-d]pyrimidin-2(1H)-one] | 10 to 30 nM | >10 | >10 | < 10 nM | 30 to 200 nM | 30 to 200 nM | – | – | – | – | – | –
COc1cc(OC)c(F)c(N2Cc3cnc(-c4cn(C)nc4C)cc3N(c3cncnc3)C2=O)c1F [Example 61, 3-(2,6-difluoro-3,5-dimethoxyphenyl)-7-(1,3-dimethyl-1H-pyrazol-4-yl)-1-(pyrimidin-5-yl)-3,4-dihydropyrido[4,3-d]pyrimidin-2(1H)-one] | 30 to 200 nM | >10 | >5 | 10 to 30 nM | > 200 nM | – | > 200 nM | – | – | – | – | –

Continued, in another order:

IC50 (FGFR2; pre-incubated for 4 hours) | FGFR1/FGFR3 IC50 ratio (FGFR3 enzyme; pre-incubated for 4 hours) | FGFR4/FGFR3 IC50 ratio (FGFR3 enzyme; pre-incubated for 4 hours) | IC50 (FGFR3 enzyme; [1]) | IC50 (FGFR4; pre-incubated for 4 hours) | IC50 (FGFR1; [2]) | IC50 (FGFR1; [3]) | IC50 (FGFR2; [4]) | IC50 (FGFR3 enzyme; pre-incubated for 5 to 10 minutes, read-out: FGFR3 IC50) | IC50 (FGFR4; [4]) | IC50 (FGFR1; FGFR1 IC50 (nM), pre-incubated for 5 to 10 minutes) | Compound | IC50 (FGFR3 enzyme)
< 10 nM | >5 | >1 | < 10 nM | 30 to 200 nM | 30 to 200 nM | – | – | – | – | – | CCN1C(=O)N(c2c(F)c(OC)cc(OC)c2F)Cc2cnc(-c3cn(CCN4CCOCC4)nc3C)cc21 [Example 49, 3-(2,6-difluoro-3,5-dimethoxyphenyl)-1-ethyl-7-(3-methyl-1-(2-morpholinoethyl)-1H-pyrazol-4-yl)-3,4-dihydropyrido[4,3-d]pyrimidin-2(1H)-one] | –
30 to 200 nM | >1 | >1 | 30 to 200 nM | > 200 nM | – | > 200 nM | – | – | – | – | CCN1C(=O)N(c2c(F)c(OC)cc(OC)c2F)Cc2cnc(-c3cn(CC(=O)N4CCOCC4)nc3C)cc21 [Example 51, 3-(2,6-difluoro-3,5-dimethoxyphenyl)-1-ethyl-7-(3-methyl-1-(2-morpholino-2-oxoethyl)-1H-pyrazol-4-yl)-3,4-dihydropyrido[4,3-d]pyrimidin-2(1H)-one] | –
< 10 nM | >5 | >5 | < 10 nM | 10 to 30 nM | 10 to 30 nM | – | – | – | – | – | CCn1cnc(-c2cc3c(cn2)CN(c2c(F)c(OC)cc(OC)c2F)C(=O)C32CC2)c1 [Example 53, 2′-(2,6-difluoro-3,5-dimethoxyphenyl)-6′-(1-ethyl-1H-imidazol-4-yl)-1′H-spiro[cyclopropane-1,4′-[2,7]naphthyridin]-3′(2′H)-one] | –
< 10 nM | >5 | >1 | < 10 nM | 10 to 30 nM | 30 to 200 nM | – | – | – | – | – | COc1cc(OC)c(F)c(N2Cc3cnc(-c4cn(C5CCS(=O)(=O)C5)nc4C)cc3C3(CC3)C2=O)c1F (stereo not shown) [Example 54, 2′-(2,6-difluoro-3,5-dimethoxyphenyl)-6′-[1-(1,1-dioxidotetrahydro-3-thienyl)-3-methyl-1H-pyrazol-4-yl]-1′,2′-dihydro-3′H-spiro[cyclopropane-1,4′-[2,7]naphthyridin]-3′-one] | –
30 to 200 nM | >5 | >1 | 30 to 200 nM | 30 to 200 nM | – | > 200 nM | – | – | – | – | COc1cc(OC)c(F)c(N2Cc3cnc(-c4cnn(C5(CC#N)CN(C(C)=O)C5)c4)cc3C3(CC3)C2=O)c1F [Example 56, 2-(1-acetyl-3-(4-(2′-(2,6-difluoro-3,5-dimethoxyphenyl)-3′-oxo-2′,3′-dihydro-1′H-spiro[cyclopropane-1,4′-[2,7]naphthyridine]-6′-yl)-1H-pyrazol-1-yl)azetidin-3-yl)acetonitrile] | –
30 to 200 nM | >10 | >10 | 10 to 30 nM | 30 to 200 nM | – | > 200 nM | 30 to 200 nM | 10 to 30 nM | > 200 nM | 30 to 200 nM | COc1cc(OC)c(F)c(N2Cc3cnc(-c4cn(C)nc4C)cc3N(c3ccnnc3)C2=O)c1F [Example 57, 3-(2,6-difluoro-3,5-dimethoxyphenyl)-7-(1,3-dimethyl-1H-pyrazol-4-yl)-1-(pyridazin-4-yl)-3,4-dihydropyrido[4,3-d]pyrimidin-2(1H)-one] | –
